Measured values published in ChEMBL document CHEMBL1909046, “DrugMatrix in vitro pharmacology data”.

What was measured:
Nitric oxide synthase 1 = Nitric oxide synthase 1 (Rattus norvegicus, UniProt P29476); type: tissue-based, Cerebellum; note: in other assays of this panel Not Active means under 50% inhibition at 10 µM
[1] = DRUGMATRIX: Phosphodiesterase PDE3 enzyme inhibition (substrate: [3H]cAMP + cAMP); type: tissue-based, Homo sapiens; settings: platelet; Not Active = under 50% inhibition at 10 µM
[2] = DRUGMATRIX: Potassium Channel [KATP] radioligand binding (ligand: [3H] Glyburide); type: cell membranes, Membrane; settings: hit-t15; Not Active = under 50% inhibition at 10 µM
Estrogen receptor beta = Estrogen receptor beta (Homo sapiens, UniProt Q92731); settings: sf9; note: in other assays of this panel Not Active means under 50% inhibition at 10 µM
Sequence of Estrogen receptor beta (Q92731 whole entry): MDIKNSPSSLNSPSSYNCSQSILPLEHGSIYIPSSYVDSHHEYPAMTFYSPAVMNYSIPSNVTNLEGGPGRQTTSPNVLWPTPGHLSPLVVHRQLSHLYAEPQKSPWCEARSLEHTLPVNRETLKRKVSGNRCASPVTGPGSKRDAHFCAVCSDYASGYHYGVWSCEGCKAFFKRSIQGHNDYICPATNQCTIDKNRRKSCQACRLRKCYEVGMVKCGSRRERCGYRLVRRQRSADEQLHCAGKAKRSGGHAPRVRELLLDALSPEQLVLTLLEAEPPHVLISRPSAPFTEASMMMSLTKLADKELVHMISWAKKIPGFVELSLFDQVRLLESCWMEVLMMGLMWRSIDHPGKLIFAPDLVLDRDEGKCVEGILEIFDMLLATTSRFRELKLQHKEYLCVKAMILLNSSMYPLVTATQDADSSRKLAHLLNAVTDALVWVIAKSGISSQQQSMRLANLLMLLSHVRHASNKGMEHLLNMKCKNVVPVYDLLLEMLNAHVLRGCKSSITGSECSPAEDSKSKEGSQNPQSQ

[3] = target: T1, C-X-C chemokine receptor type 1 (Homo sapiens, UniProt P25024); note: in other assays of this panel Not Active means under 50% inhibition at 10 µM
T1 sequence (P25024 whole entry): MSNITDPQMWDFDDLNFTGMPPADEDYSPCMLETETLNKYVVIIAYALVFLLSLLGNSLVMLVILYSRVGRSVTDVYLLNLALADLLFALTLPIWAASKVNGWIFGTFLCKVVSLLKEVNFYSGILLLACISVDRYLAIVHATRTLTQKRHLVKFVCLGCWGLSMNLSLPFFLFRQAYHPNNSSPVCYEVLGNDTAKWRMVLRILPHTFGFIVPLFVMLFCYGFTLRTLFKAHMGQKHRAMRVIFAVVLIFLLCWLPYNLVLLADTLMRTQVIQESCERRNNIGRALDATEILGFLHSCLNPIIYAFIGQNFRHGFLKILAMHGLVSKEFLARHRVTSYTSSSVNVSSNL

Adenosine receptor A2a = Adenosine receptor A2a (Homo sapiens, UniProt P29274); assay: DRUGMATRIX: Adenosine A2A radioligand binding (ligand: […]); type: cell membranes, HEK293, Membrane; settings: hek293; Not Active = under 50% inhibition at 10 µM
Sequence of Adenosine receptor A2a (P29274 whole entry): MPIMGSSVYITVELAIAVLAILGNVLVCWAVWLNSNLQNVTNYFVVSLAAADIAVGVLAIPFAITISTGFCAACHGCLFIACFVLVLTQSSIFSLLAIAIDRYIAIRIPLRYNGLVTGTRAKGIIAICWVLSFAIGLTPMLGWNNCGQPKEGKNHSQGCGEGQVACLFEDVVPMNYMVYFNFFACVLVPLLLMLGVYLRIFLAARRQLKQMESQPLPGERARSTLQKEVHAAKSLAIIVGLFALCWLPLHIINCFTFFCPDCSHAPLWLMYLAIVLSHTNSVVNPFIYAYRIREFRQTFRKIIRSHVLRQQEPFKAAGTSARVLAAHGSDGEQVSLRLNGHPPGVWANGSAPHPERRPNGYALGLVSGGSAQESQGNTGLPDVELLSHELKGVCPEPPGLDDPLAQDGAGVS

[4] = DRUGMATRIX: Atrial Natriuretic Factor (ANF) radioligand binding (ligand: [125I] ANF (rat)); type: cell membranes, Cavia porcellus, Dunkin-Hartley, Adrenal gland, Membrane; settings: Not Active = under 50% inhibition at 10 µM
[5] = target: Protein phosphatase 3 catalytic subunit alpha (Homo sapiens, UniProt Q08209); parameters: species or system Escherichia coli;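 note: inhibition of calcineurin (PP2B) enzyme activity, measured with DiFMUP as the substrate; in other assays of this panel Not Active means under 50% inhibition at 10 µM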
[6] = target: T2, Cysteinyl leukotriene receptor 1 (Homo sapiens, UniProt Q9Y271); type: cell membranes, CHO-K1, Membrane; settings: cho-k1; note: in other assays of this panel Not Active means under 50% inhibition at 10 µM
T2 sequence (Q9Y271 whole entry): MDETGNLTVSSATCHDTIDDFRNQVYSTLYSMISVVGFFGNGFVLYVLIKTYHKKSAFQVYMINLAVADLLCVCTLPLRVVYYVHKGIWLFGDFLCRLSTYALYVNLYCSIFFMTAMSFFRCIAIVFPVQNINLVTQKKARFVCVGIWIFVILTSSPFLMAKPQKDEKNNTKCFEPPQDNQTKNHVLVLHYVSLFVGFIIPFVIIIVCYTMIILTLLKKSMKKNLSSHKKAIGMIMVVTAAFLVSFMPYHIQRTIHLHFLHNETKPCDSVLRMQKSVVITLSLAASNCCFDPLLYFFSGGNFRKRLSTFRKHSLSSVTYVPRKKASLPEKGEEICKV

[7] = target: 5-hydroxytryptamine receptor 4 (Cavia porcellus, UniProt O70528); type: cell membranes, Dunkin-Hartley, Striatum, Membrane; note: in other assays of this panel Not Active means under 50% inhibition at 10 µM
Sequence of 5-hydroxytryptamine receptor 4 (O70528 whole entry): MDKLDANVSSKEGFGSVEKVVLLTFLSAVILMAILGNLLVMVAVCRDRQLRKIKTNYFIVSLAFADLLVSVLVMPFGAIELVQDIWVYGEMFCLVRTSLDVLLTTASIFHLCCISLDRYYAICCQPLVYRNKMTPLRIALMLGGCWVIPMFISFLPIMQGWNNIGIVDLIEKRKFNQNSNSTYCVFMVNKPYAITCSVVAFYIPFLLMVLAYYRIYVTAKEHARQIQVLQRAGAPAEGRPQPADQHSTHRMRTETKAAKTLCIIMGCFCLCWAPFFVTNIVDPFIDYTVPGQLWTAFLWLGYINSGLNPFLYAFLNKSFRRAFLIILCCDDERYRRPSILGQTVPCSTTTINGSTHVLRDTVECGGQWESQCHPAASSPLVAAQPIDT

Caspase-1 = target: T3, Caspase-1 (Homo sapiens, UniProt P29466); parameters: species or system Escherichia coli
T3 sequence (P29466 whole entry): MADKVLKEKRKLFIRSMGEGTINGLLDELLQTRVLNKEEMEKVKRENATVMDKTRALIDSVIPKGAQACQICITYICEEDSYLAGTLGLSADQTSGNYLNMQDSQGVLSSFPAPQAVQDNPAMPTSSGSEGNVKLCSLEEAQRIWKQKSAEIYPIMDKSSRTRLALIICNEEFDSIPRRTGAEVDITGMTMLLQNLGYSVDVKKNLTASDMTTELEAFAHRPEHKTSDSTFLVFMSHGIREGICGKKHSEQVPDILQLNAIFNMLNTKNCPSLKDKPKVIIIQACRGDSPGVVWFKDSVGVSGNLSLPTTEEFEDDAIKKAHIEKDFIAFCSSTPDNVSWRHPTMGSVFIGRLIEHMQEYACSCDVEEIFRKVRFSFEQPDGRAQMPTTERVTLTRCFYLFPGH

[8] = DRUGMATRIX: Leukotriene, BLT (LTB4) radioligand binding (ligand: [3H]LTB4); type: cell membranes, Membrane; settings: u-937; Not Active = under 50% inhibition at 10 µM
[9] = target: T4, Alpha-2C adrenergic receptor (Homo sapiens, UniProt P18825); assay: DRUGMATRIX: Adrenergic Alpha-2C radioligand binding (ligand: [3H] MK-912); type: cell membranes, Sf9, Membrane; settings: sf9
T4 sequence (P18825 whole entry): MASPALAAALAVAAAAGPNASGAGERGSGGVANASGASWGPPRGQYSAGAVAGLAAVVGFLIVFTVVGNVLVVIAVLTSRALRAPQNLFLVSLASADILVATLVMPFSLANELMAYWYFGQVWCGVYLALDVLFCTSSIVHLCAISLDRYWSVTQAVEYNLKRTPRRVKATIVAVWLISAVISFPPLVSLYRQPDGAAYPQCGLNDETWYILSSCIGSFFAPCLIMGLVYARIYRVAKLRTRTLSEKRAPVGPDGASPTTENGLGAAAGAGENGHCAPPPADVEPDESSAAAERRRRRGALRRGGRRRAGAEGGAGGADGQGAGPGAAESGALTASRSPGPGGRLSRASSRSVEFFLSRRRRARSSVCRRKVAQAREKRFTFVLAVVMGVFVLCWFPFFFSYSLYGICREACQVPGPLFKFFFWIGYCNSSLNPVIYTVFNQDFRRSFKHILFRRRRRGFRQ

[10] = target: Tyrosine-protein kinase Lck (Homo sapiens, UniProt P06239); assay: DRUGMATRIX: Protein Tyrosine Kinase, LCK enzyme inhibition (substrate: Poly(Glu:Tyr)); type: cell-based, Insect cells; settings: insect cells; Not Active = under 50% inhibition at 10 µM
Sequence of Tyrosine-protein kinase Lck (P06239 whole entry): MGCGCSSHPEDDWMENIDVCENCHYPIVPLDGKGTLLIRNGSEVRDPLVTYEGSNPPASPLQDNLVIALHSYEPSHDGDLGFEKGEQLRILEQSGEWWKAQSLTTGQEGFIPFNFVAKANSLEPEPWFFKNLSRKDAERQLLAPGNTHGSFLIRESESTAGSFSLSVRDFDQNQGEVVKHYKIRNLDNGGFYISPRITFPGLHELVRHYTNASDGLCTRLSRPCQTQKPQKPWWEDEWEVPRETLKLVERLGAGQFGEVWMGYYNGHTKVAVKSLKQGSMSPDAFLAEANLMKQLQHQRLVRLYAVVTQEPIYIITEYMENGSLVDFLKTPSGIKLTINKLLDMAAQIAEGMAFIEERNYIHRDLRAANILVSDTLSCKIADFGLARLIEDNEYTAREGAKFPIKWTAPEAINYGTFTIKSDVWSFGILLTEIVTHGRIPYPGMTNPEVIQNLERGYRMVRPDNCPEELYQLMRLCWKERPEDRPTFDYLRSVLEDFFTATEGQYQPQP

Sequence of Nitric oxide synthase 1 (P29476 whole entry): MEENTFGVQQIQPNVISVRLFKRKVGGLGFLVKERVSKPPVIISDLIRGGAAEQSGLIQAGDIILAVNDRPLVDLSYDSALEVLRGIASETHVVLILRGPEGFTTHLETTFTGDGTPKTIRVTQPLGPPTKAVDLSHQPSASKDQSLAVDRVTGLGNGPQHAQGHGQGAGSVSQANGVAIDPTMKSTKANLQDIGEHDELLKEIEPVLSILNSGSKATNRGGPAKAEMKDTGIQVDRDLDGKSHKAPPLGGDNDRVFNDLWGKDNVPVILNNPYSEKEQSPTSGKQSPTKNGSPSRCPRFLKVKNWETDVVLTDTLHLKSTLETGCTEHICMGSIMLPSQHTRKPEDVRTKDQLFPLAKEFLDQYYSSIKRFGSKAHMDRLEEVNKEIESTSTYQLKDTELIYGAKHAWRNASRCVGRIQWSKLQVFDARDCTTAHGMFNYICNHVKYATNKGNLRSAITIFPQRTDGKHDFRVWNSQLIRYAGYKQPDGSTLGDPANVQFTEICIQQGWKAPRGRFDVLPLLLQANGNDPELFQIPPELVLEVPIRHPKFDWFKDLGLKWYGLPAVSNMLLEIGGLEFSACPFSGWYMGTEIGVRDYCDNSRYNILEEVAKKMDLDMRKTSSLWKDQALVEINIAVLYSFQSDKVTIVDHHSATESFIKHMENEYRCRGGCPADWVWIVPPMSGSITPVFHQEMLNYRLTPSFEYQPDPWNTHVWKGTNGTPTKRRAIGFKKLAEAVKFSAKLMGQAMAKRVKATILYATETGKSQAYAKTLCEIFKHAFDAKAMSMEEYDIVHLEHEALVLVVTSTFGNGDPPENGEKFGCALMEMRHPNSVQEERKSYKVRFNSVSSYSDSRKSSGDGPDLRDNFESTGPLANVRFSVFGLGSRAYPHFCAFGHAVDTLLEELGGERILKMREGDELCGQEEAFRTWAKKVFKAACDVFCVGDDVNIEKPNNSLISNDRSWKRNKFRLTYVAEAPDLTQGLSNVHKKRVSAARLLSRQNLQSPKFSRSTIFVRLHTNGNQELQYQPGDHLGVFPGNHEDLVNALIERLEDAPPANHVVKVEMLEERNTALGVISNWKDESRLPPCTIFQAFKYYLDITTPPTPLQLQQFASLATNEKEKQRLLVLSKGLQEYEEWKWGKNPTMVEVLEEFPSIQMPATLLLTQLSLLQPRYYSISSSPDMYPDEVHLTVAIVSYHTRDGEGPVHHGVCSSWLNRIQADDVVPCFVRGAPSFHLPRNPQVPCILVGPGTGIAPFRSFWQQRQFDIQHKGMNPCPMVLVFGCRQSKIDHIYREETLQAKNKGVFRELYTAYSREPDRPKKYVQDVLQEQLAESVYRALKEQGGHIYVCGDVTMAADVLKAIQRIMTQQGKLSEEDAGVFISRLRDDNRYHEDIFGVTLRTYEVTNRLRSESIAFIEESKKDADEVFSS

CC[N+](CC)(CC)CCOc1cccc(OCC[N+](CC)(CC)CC)c1OCC[N+](CC)(CC)CC.[I-].[I-].[I-] [GALLAMINE TRIETHIODIDE]
Not Active: IC50 (Nitric oxide synthase 1) | IC50 [1] | Ki [1] | IC50 [2] | Ki [2] | IC50 (Estrogen receptor beta) | IC50 [3] | IC50 (Adenosine receptor A2a) | IC50 [4] | Ki [4] | IC50 [5] | IC50 [6] | IC50 [7] | IC50 (Caspase-1) | IC50 [8] | Ki [8] | IC50 [9] | IC50 [10]

Nc1nc2c(ncn2COC(CO)CO)c(=O)[nH]1 [GANCICLOVIR]
Not Active: IC50 (Nitric oxide synthase 1) | IC50 [1] | Ki [1] | IC50 [2] | Ki [2] | IC50 (Estrogen receptor beta) | IC50 [3] | IC50 (Adenosine receptor A2a) | IC50 [4] | Ki [4] | IC50 [5] | IC50 [6] | IC50 [7] | IC50 (Caspase-1) | IC50 [8] | Ki [8] | IC50 [9] | IC50 [10]

COc1c(N2CCNC(C)C2)c(F)cc2c(=O)c(C(=O)O)cn(C3CC3)c12 (configuration not stated) [GATIFLOXACIN]
Not Active: IC50 (Nitric oxide synthase 1) | IC50 [1] | Ki [1] | IC50 [2] | Ki [2] | IC50 (Estrogen receptor beta) | IC50 [3] | IC50 (Adenosine receptor A2a) | IC50 [4] | Ki [4] | IC50 [5] | IC50 [6] | IC50 [7] | IC50 (Caspase-1) | IC50 [8] | Ki [8] | IC50 [9] | IC50 [10]

NCC(=O)O [GLYCINE]
Not Active: IC50 (Nitric oxide synthase 1) | IC50 [1] | Ki [1] | IC50 [2] | Ki [2] | IC50 (Estrogen receptor beta) | IC50 [3] | IC50 (Adenosine receptor A2a) | IC50 [4] | Ki [4] | IC50 [5] | IC50 [6] | IC50 [7] | IC50 (Caspase-1) | IC50 [8] | Ki [8] | IC50 [9] | IC50 [10]

CC1(C)[C@@H](O[C@H]2O[C@H](C(=O)O)[C@@H](O)[C@H](O)[C@H]2O[C@@H]2O[C@H](C(=O)O)[C@@H](O)[C@H](O)[C@H]2O)CC[C@]2(C)[C@H]3C(=O)C=C4[C@@H]5C[C@@](C)(C(=O)O)CC[C@]5(C)CC[C@@]4(C)[C@]3(C)CC[C@@H]12 [GLYCYRRHIZIN]
Not Active: IC50 (Nitric oxide synthase 1) | IC50 [1] | Ki [1] | IC50 [2] | Ki [2] | IC50 (Estrogen receptor beta) | IC50 [3] | IC50 (Adenosine receptor A2a) | IC50 [4] | Ki [4] | IC50 [5] | IC50 [6] | IC50 [7] | IC50 (Caspase-1) | IC50 [8] | Ki [8] | IC50 [9] | IC50 [10]

COC1=CC(=O)C[C@@H](C)[C@]12Oc1c(Cl)c(OC)cc(OC)c1C2=O [GRISEOFULVIN]
Not Active: IC50 (Nitric oxide synthase 1) | IC50 [1] | Ki [1] | IC50 [2] | Ki [2] | IC50 (Estrogen receptor beta) | IC50 [3] | IC50 (Adenosine receptor A2a) | IC50 [4] | Ki [4] | IC50 [5] | IC50 [6] | IC50 [7] | IC50 (Caspase-1) | IC50 [8] | Ki [8] | IC50 [9] | IC50 [10]

C/C=C1\[C@H]2C=C(C)C[C@]1(N)c1ccc(=O)[nH]c1C2 [HUPERZINE A]
Not Active: IC50 (Nitric oxide synthase 1) | IC50 [1] | Ki [1] | IC50 [2] | Ki [2] | IC50 (Estrogen receptor beta) | IC50 [3] | IC50 (Adenosine receptor A2a) | IC50 [4] | Ki [4] | IC50 [5] | IC50 [6] | IC50 [7] | IC50 (Caspase-1) | IC50 [8] | Ki [8] | IC50 [9] | IC50 [10]

NS(=O)(=O)c1cc2c(cc1Cl)NCNS2(=O)=O [HYDROCHLOROTHIAZIDE]
Not Active: IC50 (Nitric oxide synthase 1) | IC50 [1] | Ki [1] | IC50 [2] | Ki [2] | IC50 (Estrogen receptor beta) | IC50 [3] | IC50 (Adenosine receptor A2a) | IC50 [4] | Ki [4] | IC50 [5] | IC50 [6] | IC50 [7] | IC50 (Caspase-1) | IC50 [8] | Ki [8] | IC50 [9] | IC50 [10]

CN1CCC[C@H]1c1cccnc1 [NICOTINE]
Not Active: IC50 (Nitric oxide synthase 1) | IC50 [1] | Ki [1] | IC50 [2] | Ki [2] | IC50 (Estrogen receptor beta) | IC50 [3] | IC50 (Adenosine receptor A2a) | IC50 [4] | Ki [4] | IC50 [5] | IC50 [6] | IC50 [7] | IC50 (Caspase-1) | IC50 [8] | Ki [8] | IC50 [9] | IC50 [10]
